Measurements from PubChem BioAssay (NCI).
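A five-concentration, 48-hour dose response in 96-well plates underlies each endpoint, interpolated linearly between surrounding concentrations. The concentration for full growth arrest is given as TGI.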

How the values were obtained:
Test in all cases: inhibition of tumour cell growth, NCI panel, 48 h
OVCAR-8 ovarian = system: OVCAR-8 ovarian
NCI-H23 lung = system: NCI-H23 lung
SF-268 CNS = system: SF-268 CNS
M14 melanoma = system: M14 melanoma
786-0 renal = system: 786-0 renal
UO-31 renal = system: UO-31 renal
RXF 393 renal = system: RXF 393 renal
SK-MEL-28 melanoma = system: SK-MEL-28 melanoma
NCI-H226 lung = system: NCI-H226 lung
MDA-MB-231 breast = system: MDA-MB-231 breast
NCI-H522 lung = system: NCI-H522 lung
K-562 leukemia = system: K-562 leukemia
SK-MEL-5 melanoma = system: SK-MEL-5 melanoma
DU-145 prostate = system: DU-145 prostate
A549 NSCLC = system: A549 NSCLC
SNB-19 CNS = system: SNB-19 CNS
U251 CNS = system: U251 CNS
HOP-62 NSCLC = system: HOP-62 NSCLC
MCF7 breast = system: MCF7 breast
OVCAR-4 ovarian = system: OVCAR-4 ovarian
A498 renal = system: A498 renal
CAKI-1 renal = system: CAKI-1 renal
T-47D breast = system: T-47D breast
SR leukemia = system: SR leukemia
HOP-92 NSCLC = system: HOP-92 NSCLC
SF-539 CNS = system: SF-539 CNS
LOX IMVI melanoma = system: LOX IMVI melanoma
OVCAR-5 ovarian = system: OVCAR-5 ovarian
EKVX NSCLC = system: EKVX NSCLC
OVCAR-3 ovarian = system: OVCAR-3 ovarian
RPMI-8226 leukemia = system: RPMI-8226 leukemia
SNB-75 CNS = system: SNB-75 CNS
IGROV1 ovarian = system: IGROV1 ovarian
MDA-N = system: MDA-N
COLO 205 colon = system: COLO 205 colon
NCI/ADR-RES ovarian = system: NCI/ADR-RES ovarian
MALME-3M melanoma = system: MALME-3M melanoma
BT-549 breast = system: BT-549 breast
UACC-62 melanoma = system: UACC-62 melanoma
SK-MEL-2 melanoma = system: SK-MEL-2 melanoma
NCI-H460 lung = system: NCI-H460 lung
SK-OV-3 ovarian = system: SK-OV-3 ovarian
SN12C renal = system: SN12C renal
ACHN renal = system: ACHN renal
UACC-257 melanoma = system: UACC-257 melanoma
CCRF-CEM leukemia = system: CCRF-CEM leukemia
HS 578T breast = system: HS 578T breast
MDA-MB-435 = system: MDA-MB-435
HT29 colon = system: HT29 colon
SW-620 colon = system: SW-620 colon
TK-10 renal = system: TK-10 renal
HL-60(TB) leukemia = system: HL-60(TB) leukemia
HCT-116 colon = system: HCT-116 colon
PC-3 prostate = system: PC-3 prostate
MOLT-4 leukemia = system: MOLT-4 leukemia
HCT-15 colon = system: HCT-15 colon
SF-295 CNS = system: SF-295 CNS
KM12 colon = system: KM12 colon
HCC-2998 colon = system: HCC-2998 colon

SMILES: CCOc1cc(-c2nc3ccccn3c2/N=C/c2cc(Br)ccc2O)ccc1O
- TGI (OVCAR-8 ovarian): 59.3 µM
- TGI (NCI-H23 lung): > 100 µM
- TGI (SF-268 CNS): > 100 µM
- TGI (M14 melanoma): > 100 µM
- TGI (786-0 renal): 60.4 µM
- TGI (UO-31 renal): 84.6 µM
- TGI (RXF 393 renal): 32 µM
- TGI (SK-MEL-28 melanoma): > 100 µM
- TGI (NCI-H226 lung): > 100 µM
- TGI (MDA-MB-231 breast): > 100 µM
- TGI (NCI-H522 lung): > 100 µM
- TGI (K-562 leukemia): > 100 µM
- TGI (SK-MEL-5 melanoma): > 100 µM
- TGI (DU-145 prostate): 70.3 µM
- TGI (A549 NSCLC): > 100 µM
- TGI (SNB-19 CNS): 52.6 µM
- TGI (U251 CNS): 40.2 µM
- TGI (HOP-62 NSCLC): 44.8 µM
- TGI (MCF7 breast): 43.6 µM
- TGI (OVCAR-4 ovarian): 38.7 µM
- TGI (A498 renal): 90.5 µM
- TGI (CAKI-1 renal): > 100 µM
- TGI (T-47D breast): 22.4 µM
- TGI (SR leukemia): > 100 µM
- TGI (HOP-92 NSCLC): 64.5 µM
- TGI (SF-539 CNS): > 100 µM
- TGI (LOX IMVI melanoma): > 100 µM
- TGI (OVCAR-5 ovarian): > 100 µM
- TGI (EKVX NSCLC): 76.6 µM
- TGI (OVCAR-3 ovarian): 34 µM
- TGI (RPMI-8226 leukemia): > 100 µM
- TGI (SNB-75 CNS): 31.3 µM
- TGI (IGROV1 ovarian): 49.1 µM
- TGI (MDA-N): > 100 µM
- TGI (COLO 205 colon): > 100 µM
- TGI (NCI/ADR-RES ovarian): 93 µM
- TGI (MALME-3M melanoma): > 100 µM
- TGI (BT-549 breast): > 100 µM
- TGI (UACC-62 melanoma): 57 µM
- TGI (SK-MEL-2 melanoma): > 100 µM
- TGI (NCI-H460 lung): > 100 µM
- TGI (SK-OV-3 ovarian): 92.7 µM
- TGI (SN12C renal): > 100 µM
- TGI (ACHN renal): > 100 µM
- TGI (UACC-257 melanoma): 53.5 µM
- TGI (CCRF-CEM leukemia): > 100 µM
- TGI (HS 578T breast): > 100 µM
- TGI (MDA-MB-435): > 100 µM
- TGI (HT29 colon): > 100 µM
- TGI (SW-620 colon): > 100 µM
- TGI (TK-10 renal): 48.7 µM
- TGI (HL-60(TB) leukemia): > 100 µM
- TGI (HCT-116 colon): > 100 µM
- TGI (PC-3 prostate): 73.3 µM
- TGI (MOLT-4 leukemia): > 100 µM
- TGI (HCT-15 colon): > 100 µM
- TGI (SF-295 CNS): > 100 µM

SMILES: Nc1ccc(S(=O)(=O)Nc2nc3ccccc3nc2N2CCCCC2)cc1
- TGI (OVCAR-8 ovarian): > 100 µM
- TGI (NCI-H23 lung): > 100 µM
- TGI (SF-268 CNS): > 100 µM
- TGI (M14 melanoma): > 100 µM
- TGI (786-0 renal): > 100 µM
- TGI (UO-31 renal): 55.1 µM
- TGI (RXF 393 renal): > 100 µM
- TGI (SK-MEL-28 melanoma): > 100 µM
- TGI (NCI-H226 lung): > 100 µM
- TGI (MDA-MB-231 breast): > 100 µM
- TGI (NCI-H522 lung): > 100 µM
- TGI (K-562 leukemia): > 100 µM
- TGI (SK-MEL-5 melanoma): > 100 µM
- TGI (DU-145 prostate): > 100 µM
- TGI (A549 NSCLC): > 100 µM
- TGI (SNB-19 CNS): > 100 µM
- TGI (U251 CNS): > 100 µM
- TGI (HOP-62 NSCLC): > 100 µM
- TGI (MCF7 breast): > 100 µM
- TGI (OVCAR-4 ovarian): 87.7 µM
- TGI (CAKI-1 renal): > 100 µM
- TGI (T-47D breast): > 100 µM
- TGI (SR leukemia): > 100 µM
- TGI (HOP-92 NSCLC): > 100 µM
- TGI (SF-539 CNS): > 100 µM
- TGI (KM12 colon): > 100 µM
- TGI (LOX IMVI melanoma): > 100 µM
- TGI (OVCAR-5 ovarian): > 100 µM
- TGI (EKVX NSCLC): > 100 µM
- TGI (OVCAR-3 ovarian): > 100 µM
- TGI (HCC-2998 colon): > 100 µM
- TGI (RPMI-8226 leukemia): > 100 µM
- TGI (SNB-75 CNS): > 100 µM
- TGI (IGROV1 ovarian): > 100 µM
- TGI (MDA-N): > 100 µM
- TGI (COLO 205 colon): > 100 µM
- TGI (NCI/ADR-RES ovarian): > 100 µM
- TGI (MALME-3M melanoma): > 100 µM
- TGI (BT-549 breast): > 100 µM
- TGI (UACC-62 melanoma): > 100 µM
- TGI (SK-MEL-2 melanoma): > 100 µM
- TGI (NCI-H460 lung): > 100 µM
- TGI (SK-OV-3 ovarian): > 100 µM
- TGI (SN12C renal): > 100 µM
- TGI (ACHN renal): > 100 µM
- TGI (UACC-257 melanoma): > 100 µM
- TGI (CCRF-CEM leukemia): > 100 µM
- TGI (HS 578T breast): > 100 µM
- TGI (MDA-MB-435): > 100 µM
- TGI (HT29 colon): > 100 µM
- TGI (SW-620 colon): > 100 µM
- TGI (TK-10 renal): > 100 µM
- TGI (HL-60(TB) leukemia): > 100 µM
- TGI (HCT-116 colon): > 100 µM
- TGI (PC-3 prostate): > 100 µM
- TGI (MOLT-4 leukemia): > 100 µM
- TGI (HCT-15 colon): > 100 µM
- TGI (SF-295 CNS): > 100 µM
